In patent US8143393B2, “Substituted 4-amino-pyrrolotriazine derivatives useful for treating hyper-proliferative disorders and diseases associated with angiogenesis” (Bayer HealthCare LLC, priority 2005, dated 2012):

Target: T1, FGFR-1 (Homo sapiens, UniProt P11362)
T1 construct: GST; made in house
Assay: FGFR-1 TR-FRET biochemical assay
Outline: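 In this LANCE time-resolved FRET format, compounds at final 10 μM–0.128 nM (1% DMSO, 1:5 series) were preincubated before enzyme start. Reactions ran for one hour at room temperature with 0.6 uM ATP, 25 nM biotinylated poly GT and 5 nM GST-tagged FGFR1. Inhibition was calculated from the 665/615 nm ratio minus the ATP-free background.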

[1] = 0.6 uM ATP, 5 nM FGFR1-GST, bounds given in nM

T1 sequence (P11362 22-822): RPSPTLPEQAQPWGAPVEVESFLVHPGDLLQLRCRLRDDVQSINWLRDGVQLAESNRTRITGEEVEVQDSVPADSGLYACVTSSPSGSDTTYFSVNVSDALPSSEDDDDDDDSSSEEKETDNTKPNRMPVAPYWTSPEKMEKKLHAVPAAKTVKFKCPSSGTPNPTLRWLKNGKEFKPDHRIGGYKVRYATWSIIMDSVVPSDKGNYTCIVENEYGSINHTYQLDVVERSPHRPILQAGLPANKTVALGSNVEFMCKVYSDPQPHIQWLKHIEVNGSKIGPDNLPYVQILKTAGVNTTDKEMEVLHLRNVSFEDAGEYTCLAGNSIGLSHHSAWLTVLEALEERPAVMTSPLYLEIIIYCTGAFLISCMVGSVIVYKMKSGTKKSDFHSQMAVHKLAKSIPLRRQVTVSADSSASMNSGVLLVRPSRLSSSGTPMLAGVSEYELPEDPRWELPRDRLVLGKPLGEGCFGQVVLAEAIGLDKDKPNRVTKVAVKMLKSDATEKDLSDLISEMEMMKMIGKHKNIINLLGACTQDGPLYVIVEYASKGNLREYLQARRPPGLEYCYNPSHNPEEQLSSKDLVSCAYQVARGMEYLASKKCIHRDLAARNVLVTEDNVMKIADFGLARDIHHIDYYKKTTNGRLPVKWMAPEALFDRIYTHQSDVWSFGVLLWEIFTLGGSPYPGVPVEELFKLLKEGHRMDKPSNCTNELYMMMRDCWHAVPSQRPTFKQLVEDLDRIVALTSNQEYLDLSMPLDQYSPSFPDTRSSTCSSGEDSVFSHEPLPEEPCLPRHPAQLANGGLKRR

Compound | IC50 [1] | IC50 (upper bound of the bin 'greater than 100 nM but less than 1 μM' (lower bound in E1))
Nc1ncnn2c(CN3CCOCC3)cc(-c3ccc(NC(=O)Nc4cc(C(F)(F)F)ccn4)c(Cl)c3)c12 [Example 129, N-4-[4-amino-7-(morpholin-4-ylmethyl)pyrrolo[2,1-f][1,2,4]triazin-5-yl]-2-chlorophenyl-N′-[4-(trifluoromethyl)pyridin-2-yl]urea] | < 10 nM | –
Nc1ncnn2c(CN3CCOCC3)cc(-c3ccc(NC(=O)Nc4cc(F)cc(C(F)(F)F)c4)nc3)c12 [Example 22, N-{5-[4-amino-7-(morpholin-4-ylmethyl)pyrrolo[2,1-f][1,2,4]triazin-5-yl]pyridin-2-yl}-N′-[3-fluoro-5-(trifluoromethyl)phenyl]urea] | < 10 nM | –
Nc1ncnn2c(CN3CCCOCC3)cc(-c3ccc(NC(=O)Nc4cc(C(F)(F)F)ccn4)cc3)c12 [Example 176, N-{4-[4-amino-7-(1,4-oxazepan-4-ylmethyl)pyrrolo[2,1-f][1,2,4]triazin-5-yl]phenyl}-N′-[4-(trifluoromethyl)pyridin-2-yl]urea] | < 10 nM | –
Nc1ncnn2c(CCN3CCOCC3)cc(-c3cc(F)c(NC(=O)Nc4cc(C(F)(F)F)ccc4F)cc3F)c12 [Example 211, N-{4-[4-amino-7-(2-morpholin-4-ylethyl)pyrrolo[2,1-f][1,2,4]triazin-5-yl]-2,5-difluorophenyl}-N′-[2-fluoro-5-(trifluoromethyl)phenyl]urea] | 10 to 100 nM | –
Cc1ccc(F)c(NC(=O)Nc2cc(F)c(-c3cc(CN4CCOCC4)n4ncnc(N)c34)cc2F)c1 [Example 145, N-{4-[4-amino-7-(morpholin-4-ylmethyl)pyrrolo[2,1-f][1,2,4]triazin-5-yl]-2,5-difluorophenyl}-N′-(2-fluoro-5-methylphenyl)urea] | 10 to 100 nM | –
Cc1cc(-c2cc(CN3CCOCC3)n3ncnc(N)c23)ccc1NC(=O)Nc1cc(F)cc(C(F)(F)F)c1 [Example 28, N-{4-[4-amino-7-(morpholin-4-ylmethyl)pyrrolo[2,1-f][1,2,4]triazin-5-yl]-2-methylphenyl}-N′-[3-fluoro-5-(trifluoromethyl)phenyl]urea] | < 10 nM | –
Cc1cc(-c2cc(CN3CCOCC3)n3ncnc(N)c23)ccc1NC(=O)Nc1cc(C(F)(F)F)ccn1 [Example 26, N-{4-[4-amino-7-(morpholin-4-ylmethyl)pyrrolo[2,1-f][1,2,4]triazin-5-yl]-2-methylphenyl}-N′-[4-(trifluoromethyl)pyridin-2-yl]urea] | < 10 nM | –
CC(C)(C)c1ccnc(NC(=O)Nc2ccc(-c3cc(CCN4CCOCC4)n4ncnc(N)c34)cc2F)c1 [Example 228, N-{4-[4-amino-7-(2-morpholin-4-ylethyl)pyrrolo[2,1-f][1,2,4]triazin-5-yl]-2-fluorophenyl}-N′-(4-tert-butylpyridin-2-yl)urea] | < 10 nM | –
CC(=O)c1cccc(NC(=O)Nc2ccc(-c3cc(CN4CCOCC4)n4ncnc(N)c34)cc2)c1 [Example 59, N-(3-acetylphenyl)-N′-{4-[4-amino-7-(morpholin-4-ylmethyl)pyrrolo[2,1-f][1,2,4]triazin-5-yl]phenyl}urea] | 10 to 100 nM | –
CCc1cccc(NC(=O)Nc2ccc(-c3cc(CN4CCOCC4)n4ncnc(N)c34)cc2)c1 [Example 50, N-{4-[4-amino-7-(morpholin-4-ylmethyl)pyrrolo[2,1-f][1,2,4]triazin-5-yl]phenyl}-N′-(3-ethylphenyl)urea] | < 10 nM | –
CC(C)(C)OC(=O)N1CCN(Cc2cc(-c3ccc(NC(=O)Nc4cc(C(F)(F)F)ccc4F)cc3)c3c(N)ncnn23)CC1 [Example 80, tert-butyl 4-[(4-amino-5-{4-[({[2-fluoro-5-(trifluoromethyl)phenyl]amino}carbonyl)amino]phenyl}pyrrolo[2,1-f][1,2,4]triazin-7-yl)methyl]piperazine-1-carboxylate] | > 100 nM | < 1000 nM

The remaining lines, values ahead:

IC50 [1] | IC50 (upper bound of the bin 'greater than 100 nM but less than 1 μM' (lower bound in E1)) | Compound
< 10 nM | – | Nc1ncnn2c(CCCN3CCOCC3)cc(-c3ccc(NC(=O)Nc4cc(C(F)(F)F)ccn4)c(F)c3)c12 [Example 191, N-{4-[4-amino-7-(3-morpholin-4-ylpropyl)pyrrolo[2,1-f][1,2,4]triazin-5-yl]-2-fluorophenyl}-N′-[4-(trifluoromethyl)pyridin-2-yl]urea]
10 to 100 nM | – | Nc1ncnn2c(CCCN3CCOCC3)cc(-c3ccc(NC(=O)Nc4cc(C(F)(F)F)ccc4Cl)c(F)c3)c12 [Example 217, N-{4-[4-amino-7-(3-morpholin-4-ylpropyl)pyrrolo[2,1-f][1,2,4]triazin-5-yl]-2-fluorophenyl}-N′-[2-chloro-5-(trifluoromethyl)phenyl]urea]
< 10 nM | – | Nc1ncnn2c(CCO)cc(-c3ccc(NC(=O)Nc4cc(C(F)(F)F)ccc4F)c(F)c3)c12 [Example 220, N-{4-[4-amino-7-(2-hydroxyethyl)pyrrolo[2,1-f][1,2,4]triazin-5-yl]-2-fluorophenyl}-N′-[2-fluoro-5-(trifluoromethyl)phenyl]urea]
< 10 nM | – | Nc1ncnn2c(CN3CCCOCC3)cc(-c3ccc(NC(=O)Nc4cc(C(F)(F)F)ccn4)c(F)c3)c12 [Example 179, N-{4-[4-amino-7-(1,4-oxazepan-4-ylmethyl)pyrrolo[2,1-f][1,2,4]triazin-5-yl]-2-fluorophenyl}-N′-[4-(trifluoromethyl)pyridin-2-yl]urea]
< 10 nM | – | Nc1ncnn2c(CN3CCS(=O)(=O)CC3)cc(-c3ccc(NC(=O)Nc4cccc(C(F)(F)F)c4)c(F)c3)c12 [Example 77, N-(4-{4-amino-7-[(1,1-dioxidothiomorpholin-4-yl)methyl]pyrrolo[2,1-f][1,2,4]triazin-5-yl}-2-fluorophenyl)-N′-[3-(trifluoromethyl)phenyl]urea]
< 10 nM | – | Nc1ncnn2c(CCCCN3CCOCC3)cc(-c3ccc(NC(=O)Nc4cc(C(F)(F)F)ccc4F)c(F)c3)c12 [Example 224, N-{4-[4-amino-7-(4-morpholin-4-ylbutyl)pyrrolo[2,1-f][1,2,4]triazin-5-yl]-2-fluorophenyl}-N′-[2-fluoro-5-(trifluoromethyl)phenyl]urea]
10 to 100 nM | – | Nc1ncnn2c(C(=O)NCC3CNCCO3)cc(-c3ccc(NC(=O)Nc4cccc(C(F)(F)F)c4)c(F)c3)c12 (stereo not shown) [Example 293, 4-amino-5-{3-fluoro-4-[({[3-(trifluoromethyl)phenyl]-amino}carbonyl)amino]phenyl}-N-(morpholin-2-ylmethyl)pyrrolo[2,1-f][1,2,4]-triazine-7-carboxamide]
< 10 nM | – | Nc1ncnn2c(CN3CCCOCC3)cc(-c3ccc(NC(=O)Nc4cc(C(F)(F)F)ccc4F)c(F)c3)c12 [Example 177, N-{4-[4-amino-7-(1,4-oxazepan-4-ylmethyl)pyrrolo[2,1-f][1,2,4]triazin-5-yl]-2-fluorophenyl}-N′-[2-fluoro-5-(trifluoromethyl)phenyl]urea]
< 10 nM | – | Nc1ncnn2c(CN3CCNC(=O)C3)cc(-c3ccc(NC(=O)Nc4cc(C(F)(F)F)ccc4F)c(F)c3)c12 [Example 40, N-(4-{4-amino-7-[(3-oxopiperazin-1-yl)methyl]pyrrolo[2,1-f][1,2,4]triazin-5-yl}-2-fluorophenyl)-N′-[2-fluoro-5-(trifluoromethyl)phenyl]urea]
< 10 nM | – | Nc1ncnn2c(CN3CCS(=O)(=O)CC3)cc(-c3ccc(NC(=O)Nc4cc(C(F)(F)F)ccn4)c(F)c3)c12 [Example 78, N-(4-{4-amino-7-[(1,1-dioxidothiomorpholin-4-yl)methyl]pyrrolo[2,1-f][1,2,4]triazin-5-yl}-2-fluorophenyl)-N′-[4-(trifluoromethyl)pyridin-2-yl]urea]
